Reference: PMC10675732 (Viruses, 2023)

System: A36T virus (PA/A36T, A/PR/8/34 (H1N1))
Type: cell-based, influenza A virus

| Compound | EC50 [µM] | Fold change |
| --- | --- | --- |
| NC(=O)c1nc(F)c[nH]c1=O [Favipiravir] | 19.1 ± 4.87 | 0.86 |
| O=C1c2c(O)c(=O)ccn2N([C@@H]2c3ccccc3SCc3c2ccc(F)c3F)[C@@H]2COCCN12 [baloxavir acid] | 0.00259 ± 0.00133 | 1.53 |
